The source of these data is patent US20100022491A1, “4-HYDROXY-2-OXO-2,3-DIHYDRO-1,3-BENZOTHIAZOL-7YL COMPOUNDS FOR MODULATION OF B2-ADRENORECEPTOR ACTIVITY” (ASTRAZENECA AB, priority 2006, published 2010).

Where a name gives a salt, the structure may show the parent alone.

Assay [1] deals with T1, Adrenergic β2 (Homo sapiens, UniProt P07550).
T1 construct: Adherent H292 cells were removed from tissue culture flasks; endogenous in cells; host or cells: H292 cells
Nature of the assay: Adrenergic β2 mediated cAMP production in H292 cells. The format is cell-based. Particulars: for EC50 / β2 pEC50: H292 cells, cAMP by AlphaScreen, 60 minutes at room temperature, rolipram 300 μM; for EC50: read-out: β2 pEC50 (converted); for β2 Int Act: Intrinsic Activity as a fraction relative to the maximum activity determined for formoterol. A digest of the protocol:
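cAMP accumulation in adherent H292 cells, measured by AlphaScreen and calibrated with cAMP standards. Compounds incubated 60 min at room temperature after 10 min rolipram (final 300 μM; vehicle 1.6% DMSO). pEC50 and intrinsic activity, as a fraction of formoterol's maximum, from four-parameter logistic fit.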
A general note: Cyclic AMP is a second messenger, typically raised through Gs and lowered through Gi signalling.

The target in assay [2] is T2, recombinant human α1D receptor (Homo sapiens, UniProt P25100).
T2 construct: expressed in transfected cells; host or cells: HEK293
T2 sequence (P25100 1-572): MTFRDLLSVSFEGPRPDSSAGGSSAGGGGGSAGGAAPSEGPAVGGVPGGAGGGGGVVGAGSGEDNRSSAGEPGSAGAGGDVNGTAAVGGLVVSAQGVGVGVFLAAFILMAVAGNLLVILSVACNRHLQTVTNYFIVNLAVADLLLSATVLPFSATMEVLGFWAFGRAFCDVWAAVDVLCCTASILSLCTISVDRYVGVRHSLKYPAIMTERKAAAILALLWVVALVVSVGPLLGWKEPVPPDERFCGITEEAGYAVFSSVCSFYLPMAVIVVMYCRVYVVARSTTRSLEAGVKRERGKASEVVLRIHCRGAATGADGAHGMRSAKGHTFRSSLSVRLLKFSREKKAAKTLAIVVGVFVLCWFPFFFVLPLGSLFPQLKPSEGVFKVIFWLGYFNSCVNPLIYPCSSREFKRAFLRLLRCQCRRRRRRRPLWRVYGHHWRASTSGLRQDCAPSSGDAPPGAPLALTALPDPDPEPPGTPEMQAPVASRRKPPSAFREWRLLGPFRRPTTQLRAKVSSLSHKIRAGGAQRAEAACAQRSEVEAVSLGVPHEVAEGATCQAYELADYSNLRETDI
In words: Adrenergic α1D selectivity binding assay ([3H]-prazosin). Particulars: inhibition of [3H]-prazosin (0.3 nM) binding, HEK293 membranes; for IC50: read-out: α1 bind pIC50 (converted). A digest of the protocol: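 Displacement of [3H]-prazosin (0.3 nM) from recombinant human α1D receptor in HEK293-cell membranes, 2 h at room temperature, pH 7.4 HEPES/EDTA/gelatin buffer. Filtration and scintillation counting, non-specific binding set with 10 μM BMY7378; four-parameter logistic fit gives pIC50.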

T1 sequence (P07550 whole entry): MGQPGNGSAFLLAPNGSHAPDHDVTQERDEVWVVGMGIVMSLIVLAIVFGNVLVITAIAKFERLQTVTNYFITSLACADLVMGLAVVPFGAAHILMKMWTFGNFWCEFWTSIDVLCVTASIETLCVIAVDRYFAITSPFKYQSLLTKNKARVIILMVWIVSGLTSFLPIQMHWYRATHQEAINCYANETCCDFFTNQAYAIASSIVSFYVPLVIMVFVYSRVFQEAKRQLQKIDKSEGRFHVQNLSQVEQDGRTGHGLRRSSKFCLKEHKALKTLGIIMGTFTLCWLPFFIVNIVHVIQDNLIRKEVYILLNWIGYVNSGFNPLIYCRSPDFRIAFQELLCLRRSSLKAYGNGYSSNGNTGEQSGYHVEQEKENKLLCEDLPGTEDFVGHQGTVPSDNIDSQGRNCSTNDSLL

With `O=C(CCNCCc1nc2ccccc2[nH]1)N(CCNCCc1ccc(O)c2[nH]c(=O)sc12)C1CCCCC1` [Example 77, N^3-[2-(1H-Benzimidazol-2-yl)ethyl]-N^1-cyclohexyl-N^1-(2-{[2-(4-hydroxy-2-oxo-2,3-dihydro-1,3-benzothiazol-7-yl)ethyl]amino}ethyl)-β-alaninamide tris-trifluoroacetic acid salt], in assay [1], the EC50 is 158 nM and the “β2 Int Act” value came out at 0.54. For the same compound, in assay [2], the IC50 was 251 nM.

On to `O=C(CCNCCc1cc(F)cc(F)c1)N(CCNCCc1ccc(O)c2[nH]c(=O)sc12)C1CCCCC1` [Example 78, N^1-Cyclohexyl-N^3-[2-(3,5-difluorophenyl)ethyl]-N^1-(2-{[2-(4-hydroxy-2-oxo-2,3-dihydro-1,3-benzothiazol-7-yl)ethyl]amino}ethyl)-β-alaninamide bis-trifluoroacetic acid salt], for which, in assay [1], the EC50 is 3.16 nM and the “β2 Int Act” value was 0.91. The IC50 in assay [2] was 251 nM.

With `O=C(CCNCCc1cc(F)ccc1F)N(CCNCCc1ccc(O)c2[nH]c(=O)sc12)C1CCCCC1` [Example 79, N^1-Cyclohexyl-N^3-[2-(2,5-difluorophenyl)ethyl]-N^1-(2-{[2-(4-hydroxy-2-oxo-2,3-dihydro-1,3-benzothiazol-7-yl)ethyl]amino}ethyl)-β-alaninamide bis-trifluoroacetic acid salt], in assay [1], the EC50 is 2.51 nM and the “β2 Int Act” value came out at 0.84. Further, in assay [2], the IC50 was 63.1 nM.

In the case of `O=C(CCNCCc1cccc(F)c1F)N(CCNCCc1ccc(O)c2[nH]c(=O)sc12)C1CCCCC1` [Example 81, N^1-Cyclohexyl-N^3-[2-(2,3-difluorophenyl)ethyl]-N^1-(2-{[2-(4-hydroxy-2-oxo-2,3-dihydro-1,3-benzothiazol-7-yl)ethyl]amino}ethyl)-β-alaninamide bis-trifluoroacetic acid salt], in assay [1], the EC50 was 2.51 nM and the “β2 Int Act” value is 0.89. Besides, the IC50 in assay [2] is 200 nM.

In the case of `O=C(CCNCCc1cccc(C(F)(F)F)c1)N(CCNCCc1ccc(O)c2[nH]c(=O)sc12)C1CCCCCC1` [Example 82, N^1-Cycloheptyl-N^1-(2-{[2-(4-hydroxy-2-oxo-2,3-dihydro-1,3-benzothiazol-7-yl)ethyl]amino}ethyl)-N^3-{2-[3-(trifluoromethyl)phenyl]ethyl}-β-alaninamide bis-trifluoroacetic acid salt], in assay [1], the EC50 was 79.4 nM and the “β2 Int Act” value is 0.86. Besides, the IC50 in assay [2] is 251 nM.

In the case of `O=C(CCNCCc1cc(F)ccc1F)N(CCNCCc1ccc(O)c2[nH]c(=O)sc12)C1CCCCCC1` [Example 83, N^1-Cycloheptyl-N^3-[2-(2,5-difluorophenyl)ethyl]-N^1-(2-{[2-(4-hydroxy-2-oxo-2,3-dihydro-1,3-benzothiazol-7-yl)ethyl]amino}ethyl)-β-alaninamide bis-trifluoroacetic acid salt], in assay [1], the EC50 is 3.98 nM and the “β2 Int Act” value came to 0.71. The IC50 in assay [2] is 63.1 nM.

`O=C(CCNCCc1c(F)cccc1F)N(CCNCCc1ccc(O)c2[nH]c(=O)sc12)C1CCCCCC1` [Example 84, N^1-Cycloheptyl-N^3-[2-(2,6-difluorophenyl)ethyl]-N^1-(2-{[2-(4-hydroxy-2-oxo-2,3-dihydro-1,3-benzothiazol-7-yl)ethyl]amino}ethyl)-β-alaninamide bis-trifluoroacetic acid salt]: in assay [1], the EC50 is 20 nM and the “β2 Int Act” value came to 0.89. Also, the IC50 in assay [2] was 100 nM.

Take `O=C(CCNCCc1cc(F)cc(F)c1)N(CCNCCc1ccc(O)c2[nH]c(=O)sc12)C1CCCCC1` [Example 92, N-Cyclohexyl-N^3-[2-(3,5-difluorophenyl)ethyl]-N-(2-{[2-(4-hydroxy-2-oxo-2,3-dihydro-1,3-benzothiazol-7-yl)ethyl]amino}ethyl)-β-alaninamide dihydrobromide salt]: the “β2 pEC50” value in assay [1] was 8.5. Besides, the “α1 bind pIC50” value in assay [2] turned out to be 6.6.

For `O=C(CCNCCc1cccc(F)c1F)N(CCNCCc1ccc(O)c2[nH]c(=O)sc12)C1CCCCC1` [Example 93, N-Cyclohexyl-N^3-[2-(2,3-difluorophenyl)ethyl]-N-(2-{[2-(4-hydroxy-2-oxo-2,3-dihydro-1,3-benzothiazol-7-yl)ethyl]amino}ethyl)-β-alaninamide dihydrobromide salt], the “β2 pEC50” value in assay [1] is on record as 8.6. In addition, the “α1 bind pIC50” value in assay [2] is 6.7.

As to `O=C(CCNCCc1ccc(Cl)c(Cl)c1)N(CCNCCc1ccc(O)c2[nH]c(=O)sc12)C1CCOCC1` [Example 94, N^3-[2-(3,4-Dichlorophenyl)ethyl]-N-(2-{[2-(4-hydroxy-2-oxo-2,3-dihydro-1,3-benzothiazol-7-yl)ethyl]amino}ethyl)-N-(tetrahydro-2H-pyran-4-yl)-β-alaninamide dihydrobromide salt], the “β2 pEC50” value in assay [1] was determined as 8.1. Moreover, the “α1 bind pIC50” value in assay [2] is 6.2.

For `O=C(CCNCCc1cccc(F)c1)N(CCNCCc1ccc(O)c2[nH]c(=O)sc12)C1CCCCCC1` [Example 95, N-Cycloheptyl-N^3-[2-(3-fluorophenyl)ethyl]-N-(2-{[2-(4-hydroxy-2-oxo-2,3-dihydro-1,3-benzothiazol-7-yl)ethyl]amino}ethyl)-β-alaninamide dihydromide salt], in assay [1], the “β2 pEC50” value is reported as 8.6. The “α1 bind pIC50” value in assay [2] came to 6.8.

As to `O=C(CCNCCc1cccc(F)c1)N(CCNCCc1ccc(O)c2[nH]c(=O)sc12)C1CCCCC1` [Example 96, N-Cyclohexyl-N^3-[2-(3-fluorophenyl)ethyl]-N-(2-{[2-(4-hydroxy-2-oxo-2,3-dihydro-1,3-benzothiazol-7-yl)ethyl]amino}ethyl)-β-alaninamide dihydrobromide salt], in assay [1], the EC50 was 2.51 nM and the “β2 Int Act” value was determined as 0.85. In addition, in assay [2], the IC50 is 200 nM.

For `O=C(CCNCCc1ccccc1)N(CCNCCc1ccc(O)c2[nH]c(=O)sc12)C1CCCCCC1` [Example 98, N-Cycloheptyl-N-(2-{[2-(4-hydroxy-2-oxo-2,3-dihydro-1,3-benzothiazol-7-yl)ethyl]amino}ethyl)-N^3-(2-phenylethyl)-β-alaninamide dihydrobromide salt], in assay [1], the EC50 was 1.58 nM. Besides, the “β2 Int Act” value in assay [1] (dihydrobromide salt) was determined as 0.8. In addition, the IC50 in assay [2] was 63.1 nM.

In the case of `O=C(NCc1ccccc1)c1ccc(CCNCCC(=O)N(CCNCCc2ccc(O)c3[nH]c(=O)sc23)C2CCCCCC2)cc1` [Example 100, N-Benzyl-4-[2-({3-[cycloheptyl(2-{[2-(4-hydroxy-2-oxo-2,3-dihydro-1,3-benzothiazol-7-yl)ethyl]amino}ethyl)amino]-3-oxopropyl}amino)ethyl]benzamide bis-trifluoroacetic acid salt], in assay [1], the EC50 is 6.31 nM and the “β2 Int Act” value was determined as 0.81. Further, the IC50 in assay [2] was 251 nM.

Consider `CCCC[C@@H](C)N(CCNCCc1ccc(O)c2[nH]c(=O)sc12)C(=O)CCNCCc1ccccc1` [Example 101, N-(2-{[2-(4-Hydroxy-2-oxo-2,3-dihydro-1,3-benzothiazol-7-yl)ethyl]amino}ethyl)-N-[(1R)-1-methylpentyl]-N^3-(2-phenylethyl)-β-alaninamide bis-trifluoroacetic acid salt], for which, in assay [1], the EC50 was 2.51 nM and the “β2 Int Act” value stood at 0.98. The IC50 in assay [2] was 50.1 nM.
